How the values were obtained:
[1] = system: HDAC; experiment: HDAC inhibitory activity assay (FRET); assay type: biochemical; details: for Inhibition rate: test concentration 100 nM, relative to DMSO control; for IC50: HDAC, FRET, read-out: Half-maximal inhibitory concentration (IC50 ± SD)
Experimental: The HDAC inhibitory activity of the synthesized compounds was determined by fluorescence resonance energy transfer (FRET), and then compared with that of the positive control to screen out compounds with better activity. HDAC was obtained by purification or purchased directly.
The method was as follows.
An enzyme was added to reaction wells, a reaction buffer was added to control wells, a sample dissolved in DMSO was added to the reaction wells, and the wells were incubated using a contactless nanoflow sonic pipetting system (Ech-550; nanoflow). A fluorescent substrate was added to each reaction well and then rotated and shaken. The wells were incubated for 1-2 h at 30° C. under a sealed condition. A TMP26-containing chromogenic agent was added to terminate the reaction and produce fluorescence. The fluorescence intensity was detected using En Vision multi-label microplate detector (Perkin Elmer) (excitation light: 490 nm, emitted light: 520 nm). After the stabilization of color development, the endpoint value was read. The percentage (relative to the DMSO control group) inhibition rate was calculated using the software GraphPad Prism 4.

[2] = system: human breast cancer cells MCF7; experiment: In vitro anti-tumor activity, MTT method; assay type: cell-based; details: MCF-7, MTT, 96-hour treatment
Experimental: (§1) The inhibitory effects of the compounds against human non-small cell lung cancer cell lines A549, NCI-H1650, human small cell lung cancer cell lines H446, human prostate cancer cells DU145, PC-3, LNCAP, human colon cancer cells lines HCT116, human breast cancer cells MDA-MB-231, and MCF7 tumor cell lines were determined using the MTT method.
(§2) The method was as follows. The cells in the exponential growth phase were collected to count living cells. The concentration of the cell suspension was adjusted using the corresponding medium of each group of cells. The cell suspension was added to the 96-well culture plate at 100 μL per cell, and the plate was placed in a 5% CO2 incubator at 37° C. and incubated for 24 h. Each test compound was dissolved in DMSO to prepare a stock solution with a corresponding concentration. Then, each stock solution was diluted 500-fold with the medium to prepare 4 replicate wells. 100 μL of the corresponding 500-fold solution was added to each well per cell line, with the final DMSO concentration of 0.1%. […] The half-maximal (relative to the DMSO control group) inhibition rate was calculated using the software GraphPad Prism 4.

[3] = system: human non-small cell lung cancer cell line A549; experiment: In vitro anti-tumor activity, MTT method; assay type: cell-based; details: 96-hour treatment
Experimental: as §1, §2

[4] = system: human prostate cancer cells DU145; experiment: In vitro anti-tumor activity, MTT method; assay type: cell-based; details: 96-hour treatment
Experimental: as §1, §2

[5] = system: human prostate cancer cells PC-3; experiment: In vitro anti-tumor activity, MTT method; assay type: cell-based; details: PC-3, MTT, 96-hour treatment
Experimental: as §1, §2

IC50 ([2]; Homo sapiens, MCF7, 96 h) [nM] | IC50 ([3]; Homo sapiens, A549, 96 h) [nM] | IC50 ([4]; Homo sapiens, DU-145, 96 h) [nM] | IC50 ([5]; Homo sapiens, 96 h) [nM] | IC50 [1] [nM] | IC50 [2] [nM] | IC50 [4] [nM] | IC50 [5] [nM] | IC50 [3] [nM] | Compound | Inhibition rate [1] | Inhibition rate ([1]; 0.1 µM)
800 ± 150 | 4340 ± 690 | 1720 ± 120 | 1930 ± 230 |  |  |  |  |  | O=C(CCCCCCN1C(=O)C/C(=C\c2ccccc2O)C1=O)NO [Example I-37, (E)-7-(3-(2-hydroxybenzal)-2,5-diketopyrrolidinyl)-N-hydroxyheptamide] | 90.6% ± 0.9% | 
1380 ± 120 | 5090 ± 230 | 910 ± 70 | 1470 ± 150 |  |  |  |  |  | O=C(CCCCCCN1C(=O)C/C(=C\c2cccc(I)c2)C1=O)NO [Example I-29, (E)-7-(3-(3-iodobenzal)-2,5-diketopyrrolidinyl)-N-hydroxyheptamide] | 91.3% ± 0.7% | 
> 20000 | > 20000 | > 20000 | > 20000 |  |  |  |  |  | O=C(CCCCCN1C(=O)C/C(=C\c2ccccc2)C1=O)N[C@H]1CCCC[C@@H]1O [Example I-12, 6-(3-((E)-benzal)-2,5-diketopyrrolidinyl)-N-((1S,2S)-2-hydroxycyclohexyl)hexanamide] | 0% | 
> 20000 | > 20000 | > 20000 | > 20000 |  |  |  |  |  | O=C(CCCN1C(=O)C/C(=C\c2ccccc2)C1=O)NO [Example I-1, (E)-4-(3-benzal-2,5-dioxopyrrolidinyl)-N-hydroxybutyramide] |  | 
920 ± 50 | 3020 ± 510 | 660 ± 120 | 890 ± 50 |  |  |  |  |  | O=C(CCCCCCN1C(=O)C/C(=C\c2cccc(F)c2)C1=O)NO [Example I-28, (E)-7-(3-(3-fluorobenzal)-2,5-diketopyrrolidinyl)-N-hydroxyheptamide] | 85.2% ± 1.6% | 
3890 ± 360 | 5880 ± 580 | 1560 ± 180 | 5010 ± 380 |  |  |  |  |  | O=C(CCCCCCCN1C(=O)C/C(=C\c2ccccc2)C1=O)NO [Example I-5] |  | 
> 20000 | > 20000 | > 20000 | > 20000 |  |  |  |  |  | O=C(CCCN1C(=O)C/C(=C\c2ccccc2)C1=O)N[C@H]1CCCC[C@@H]1O [Example I-10, 4-(3-((E)-benzal)-2,5-diketopyrrolidinyl)-N-((1S,2S)-2-hydroxycyclohexyl) butyramide] |  | 
830 ± 50 | 2810 ± 100 | 650 ± 90 | 1060 ± 130 |  |  |  |  |  | O=C(CCCCCCN1C(=O)C/C(=C\c2cccc(Br)c2)C1=O)NO [Example I-27, (E)-7-(3-(3-bromobenzal)-2,5-diketopyrrolidinyl)-N-hydroxyheptamide] | 90.9% ± 1.2% | 
 |  |  |  |  | > 20000 | > 20000 | > 20000 | > 20000 | Nc1cc(F)ccc1NC(=O)CCCN1C(=O)C/C(=C\c2ccccc2)C1=O [Example I-6, (E)-N-(2-amino-4-fluorophenyl)-4-(3-benzal-2,5-diketopyrrolidinyl) butyramide] |  | 
2580 ± 70 | 3510 ± 150 | 1490 ± 210 | 4270 ± 250 |  |  |  |  |  | O=C(CCCCCN1C(=O)C/C(=C\c2ccccc2)C1=O)NO [Example I-3] |  | 
> 20000 | > 20000 | > 20000 | > 20000 |  |  |  |  |  | O=C(CCCCN1C(=O)C/C(=C\c2ccccc2)C1=O)N[C@H]1CCCC[C@@H]1O [Example I-11, 5-(3-((E)-benzal)-2,5-diketopyrrolidinyl)-N-((1S,2S)-2-hydroxycyclohexyl)pentanamide] |  | 
> 20000 | > 20000 | > 20000 | > 20000 |  |  |  |  |  | O=C(CCCCN1C(=O)C/C(=C\c2ccccc2)C1=O)NO [Example I-2] |  | 

Further lines, the compound ahead of its results:

Compound | IC50 ([2]; Homo sapiens, MCF7, 96 h) [nM] | IC50 ([3]; Homo sapiens, A549, 96 h) [nM] | IC50 ([4]; Homo sapiens, DU-145, 96 h) [nM] | IC50 ([5]; Homo sapiens, 96 h) [nM] | IC50 [1] [nM] | IC50 [2] [nM] | IC50 [4] [nM] | IC50 [5] [nM] | IC50 [3] [nM] | Inhibition rate [1] | Inhibition rate ([1]; 0.1 µM)
COc1ccc(Br)cc1/C=C1\CC(=O)N(CCCCCCC(=O)NO)C1=O [Example I-39, (E)-7-(3-(5-bromo-2-methoxybenzal)-2,5-diketopyrrolidinyl)-N-hydroxyheptamide] | 680 ± 90 | 2210 ± 270 | 460 ± 40 | 1130 ± 70 |  |  |  |  |  | 88.1% ± 1.1% | 
COc1ccc(/C=C2\CC(=O)N(CCCCCCC(=O)NO)C2=O)cc1 [Example I-33, (E)-7-(3-(4-methoxybenzal)-2,5-diketopyrrolidinyl)-N-hydroxyheptamide] | 1020 ± 110 | 1520 ± 140 | 500 ± 100 | 890 ± 100 | 13 ± 0.02 |  |  |  |  |  | 
O=C(CCCCCCN1C(=O)C/C(=C\c2ccc(C(F)(F)F)cc2)C1=O)NO [Example I-17, (E)-7-(3-(4-trifluoromethylbenzal)-2,5-diketopyrrolidinyl)-N-hydroxyheptamide] | 1680 ± 90 | 3370 ± 430 | 1220 ± 180 | 1830 ± 50 |  |  |  |  |  | 76.2% ± 0.7% | 
O=C(CCCCCCN1C(=O)C/C(=C\c2ccccn2)C1=O)NO [Example I-21, (E)-7-(3-(2-methylenepyridin)-2,5-diketopyrrolidinyl)-N-hydroxyheptamide] | 1540 ± 90 | 2250 ± 250 | 670 ± 90 | 990 ± 40 |  |  |  |  |  | 88.3% ± 1.1% | 
O=C(NO)c1ccc(CN2C(=O)C/C(=C\c3ccccc3)C2=O)cc1 [Example I-41, (E)-4-((3-benzal-2,5-diketopyrrolidinyl)methyl)-N-hydroxybenzamide] | 6970 ± 830 | 3090 ± 410 | 2540 ± 410 | 7820 ± 900 |  |  |  |  |  | 77.1% ± 1.8% | 
Cc1ccc(/C=C2\CC(=O)N(CCCCCCC(=O)NO)C2=O)cc1 [Example I-18, (E)-7-(3-(4-methylbenzal)-2,5-diketopyrrolidinyl)-N-hydroxyheptamide] |  | 1880 ± 170 |  |  |  | 460 ± 40 | 310 ± 50 | 2200 ± 80 |  |  | 85.9% ± 0.9%
COc1cc(Br)ccc1/C=C1\CC(=O)N(CCCCCCC(=O)NO)C1=O [Example I-40, (E)-7-(3-(4-bromo-2-methoxybenzal)-2,5-diketopyrrolidinyl)-N-hydroxyheptamide] | 320 ± 20 | 1490 ± 90 | 250 ± 40 | 670 ± 100 | 5.5 ± 0.03 |  |  |  |  |  | 
N#Cc1ccccc1/C=C1\CC(=O)N(CCCCCCC(=O)NO)C1=O [Example I-20, (E)-7-(3-(2-cyanobenzal)-2,5-diketopyrrolidinyl)-N-hydroxyheptamide] | 820 ± 50 | 2820 ± 390 | 740 ± 100 | 870 ± 100 | 40.1 ± 1.21 |  |  |  |  |  | 
CC(C)c1ccc(/C=C2\CC(=O)N(CCCCCCC(=O)NO)C2=O)cc1 [Example I-15, (E)-7-(3-(4-isopropylbenzal)-2,5-diketopyrrolidinyl)-N-hydroxyheptamide] | 1660 ± 140 | 3680 ± 500 | 1350 ± 270 | 1820 ± 160 |  |  |  |  |  | 81.4% ± 0.5% | 
Nc1cc(F)ccc1NC(=O)CCCCN1C(=O)C/C(=C\c2ccccc2)C1=O [Example I-7, (E)-N-(2-amino-4-fluorophenyl)-5-(3-benzal-2,5-diketopyrrolidinyl)pentanamide] | > 20000 | > 20000 | > 20000 | > 20000 |  |  |  |  |  | 0% | 
COc1cc(/C=C2\CC(=O)N(CCCCCCC(=O)NO)C2=O)cc(OC)c1OC [Example I-35, (E)-7-(3-(3,4,5-trimethoxybenzal)-2,5-diketopyrrolidinyl)-N-hydroxyheptamide] | 1270 ± 130 | 3630 ± 650 | 1030 ± 140 | 1710 ± 170 |  |  |  |  |  | 82.5% ± 3.5% | 
Nc1cc(F)ccc1NC(=O)CCCCCCN1C(=O)C/C(=C\c2ccccc2)C1=O [Example I-9, (E)-N-(2-amino-4-fluorophenyl)-7-(3-benzal-2,5-diketopyrrolidinyl)heptamide] | > 20000 | > 20000 | > 20000 | > 20000 |  |  |  |  |  |  | 
CN(C)c1ccc(/C=C2\CC(=O)N(CCCCCCC(=O)NO)C2=O)cc1 [Example I-16, (E)-7-(3-(4-dimethylaminobenzal)-2,5-diketopyrrolidinyl)-N-hydroxyheptamide] | 1160 ± 120 | 2240 ± 80 | 920 ± 30 | 1750 ± 120 |  |  |  |  |  | 93.3% ± 1.0% | 
O=C(CCCCCCN1C(=O)C/C(=C\c2ccc(Cl)c(Cl)c2)C1=O)NO [Example I-30, (E)-7-(3-(3,4-dichlorobenzal)-2,5-diketopyrrolidinyl)-N-hydroxyheptamide] | 900 ± 20 | 2340 ± 100 | 440 ± 80 | 1690 ± 80 |  |  |  |  |  | 82.1% ± 0.1% | 

— US20260124191A1, “HISTONE DEACETYLASE INHIBITOR AND USES THEREOF” (NANJING HONGSHUN PHARMACEUTICAL TECHNOLOGY CO., LTD, priority 2023, published 2026)
